What was measured:
[1] = Acute toxicity, single oral administration (Test 1); conditions: mouse, in vivo, fasting white mice, NMRI strain, Litchfield and Wilcoxon
Procedure: 1. Acute toxicity: The acute toxicity is determined by a single oral administration to fasting white mice of the NMRI strain. The […] lethal dose (LD50) is computed in accordance with the method described by J.T. Litchfield and F. Wilcoxon in Journal of Pharmacology and Experimental Therapeutics, vol. 96, page 99 (1949).

mouse = assay: Test of prolongation of narcosis induced by hexobarbital (Test 2); assay type: in vivo; conditions: peroral, 30 minutes before 65 mg/kg hexobarbital i.v., dose required to double the sleeping time, read-out: Narcotic prolongation effect (Test 2)
Procedure: 2. Test of prolongation of narcosis induced by hexobarbital: In accordance with this test, the test substance is administered perorally to a mouse. After an interval of 30 minutes, a dose of 65 milligrams of hexobarbital per kilogram of body weight is administered intravenously. The result is reported as the dose of the test compound that was required to double the period of sleeping time that was induced by the hexobarbital.

[2] = test system: female mice of the NMRI strain; assay: Test of sedative effectiveness (Test 3); assay type: in vivo, mouse (female mice of the NMRI strain); conditions: Mus musculus, ip, 0.5 h; intraperitoneal, on awakening from 100 mg/kg hexobarbital i.p.; dose required to induce sleep for 30 minutes; read-out: Effective sedative dose ED50 (Test 3)
Procedure: 3. Test of sedative effectiveness: In this test is measured the period of narcosis that is induced by the test substance following a period of narcosis induced by hexobarbital. A dose of 100 milligrams of hexobarbital per kilogram of body weight is administered intraperitoneally to female mice of the NMRI strain. As soon as the mouse revives or awakens from the narcosis induced by the dose of hexobarbital, a measured dose of the test substance is administered intraperitoneally. The period between the administration of the test substance and the second revival of the mouse is then noted. From the length of this second period is calculated the dose of the test substance that was required to induce sleep for a period of 30 minutes and this dose is referred to as the effective sedative dose (ED50).

[3] = test system: female mice of the NMRI strain; assay: Squirrel-cage test for determining effect of drugs on motility (Test 4); assay type: in vivo, mouse (female mice of the NMRI strain); conditions: peroral, 20 mice, revolutions over 5 hours, compared with peroral chlordiazepoxide
Procedure: 4. Squirrel-cage test for determining effect of drugs on motility: The test substance is administered perorally to female mice of the NMRI strain that had previously not been exercised in a squirrel cage. Twenty mice are placed into the revolving cylinder of the squirrel cage and they are allowed to run freely therein. The number of revolutions through which the cylinder in the squirrel cage spins every 15 minutes is noted during the course of an extended period of 5 hours, when the test is discontinued. The average of the number of revolutions per minute is calculated and represented on a graph. These values are then compared with […] and the results are reported in milligrams per kilogram of body weight.

COc1cc(C)ccc1OCCN1CCN(CCCC(=O)c2ccc(F)cc2)CC1.Cl.Cl [Substance 5, 1-[3-(4-Fluorobenzoyl)propyl]-4-[2-(4-methyl-2-methoxyphenoxy)ethyl]piperazine dihydrochloride]
LD50 [1]: 458 mg/kg | ED (2-fold sleeping time) (mouse): 46 mg/kg | ED50 [2]: 7 mg/kg | Squirrel cage motility test versus 21.5 mg/kg chlordiazepoxide (Test 4) [3]: 3.2 mg/kg

Cl.Cl.O=C(CCCN1CCN(CCSc2ccc(Cl)cc2)CC1)c1ccc(F)cc1 [Substance 2, 1-[3-(4-Fluorobenzoyl)propyl]-4-[2-(4-chlorophenylthio)-ethyl]piperazine dihydrochloride]
LD50 [1]: > 1470 mg/kg | ED (2-fold sleeping time) (mouse): 20 mg/kg | ED50 [2]: 30 mg/kg | Squirrel cage motility test versus 21.5 mg/kg chlordiazepoxide (Test 4) [3]: > 10 mg/kg

Cl.Cl.N#Cc1ccc(OCCN2CCN(CCCC(=O)c3ccc(F)cc3)CC2)cc1 [Substance 1, 1-[3-(4-Fluorobenzoyl)propyl]-4-[2-(4-cyanophenoxy)ethyl]-piperazine dihydrochloride]
LD50 [1]: 215 mg/kg | ED (2-fold sleeping time) (mouse): 10 mg/kg | ED50 [2]: 21.5 mg/kg | Squirrel cage motility test versus 21.5 mg/kg chlordiazepoxide (Test 4) [3]: 0.7 mg/kg

Cl.Cl.O=C(CCCN1CCN(CCSc2ccc([N+](=O)[O-])cc2)CC1)c1ccc(F)cc1 [Substance 8, 1-[3-(4-Fluorobenzoyl)propyl]-4-[2-(4-nitrophenylthio)-ethyl]piperazine dihydrochloride]
LD50 [1]: 499 mg/kg | ED (2-fold sleeping time) (mouse): 6 mg/kg | ED50 [2]: 30 mg/kg | Squirrel cage motility test versus 21.5 mg/kg chlordiazepoxide (Test 4) [3]: 6.8 mg/kg

Cc1ccc([N+](=O)[O-])cc1OCCN1CCN(CCCC(=O)c2ccc(F)cc2)CC1.Cl.Cl [Substance 6, 1-[3-(4-Fluorobenzoyl)propyl]-4-[2-(5-nitro-2-methylphenoxy)ethyl]piperazine dihydrochloride]
LD50 [1]: > 1470 mg/kg | ED (2-fold sleeping time) (mouse): 32 mg/kg | ED50 [2]: 23 mg/kg

CS(=O)(=O)c1ccc(OCCN2CCN(CCCC(=O)c3ccc(F)cc3)CC2)cc1.Cl.Cl [Substance 7, 1-[3-(4-Fluorobenzoyl)propyl]-4-[2-(4-methylsulfonylphenoxy)ethyl]piperazine dihydrochloride]
LD50 [1]: 825 mg/kg | ED (2-fold sleeping time) (mouse): 46 mg/kg | ED50 [2]: 30 mg/kg | Squirrel cage motility test versus 21.5 mg/kg chlordiazepoxide (Test 4) [3]: 6.8 mg/kg

Cc1ccc(OCCN2CCN(CCCC(=O)c3ccc(F)cc3)CC2)c([N+](=O)[O-])c1.Cl.Cl [Substance 4, 1-[3-(4-Fluorobenzoyl)propyl]-4-[2-(4-methyl-2-nitrophenoxy)ethyl]piperazine dihydrochloride]
LD50 [1]: 1720 mg/kg | ED (2-fold sleeping time) (mouse): 20 mg/kg | ED50 [2]: 46 mg/kg

CCC(=O)c1ccc(OCCN2CCN(CCCC(=O)c3ccc(F)cc3)CC2)c(Cl)c1.Cl.Cl [Substance 3, 1-[3-(4-Fluorobenzoyl)propyl]-4-[2-(4-propionyl-2-chlorophenoxy)ethyl]piperazine dihydrochloride]
LD50 [1]: 860 mg/kg | ED (2-fold sleeping time) (mouse): 20 mg/kg | ED50 [2]: 14 mg/kg | Squirrel cage motility test versus 21.5 mg/kg chlordiazepoxide (Test 4) [3]: 1.5 mg/kg

Source: patent publication US3966735A, “1-3-(4-Fluorobenzoyl)propyl-4-substituted phenoxy ethyl piperazine” (Kali-Chemie Aktiengesellschaft, priority 1973, dated 1976)
